Test results: patent US20040162345A1, “Compounds with NEP/MP-inhibitory activity and uses thereof” (Solvay Pharmaceuticals GmbH, priority 2001, published 2004)
Entries after “also recorded” stand apart in the source; their conditions may differ. Read-outs that look alike come from different tables or passages of the source.

Key:
[1] = system: patients with congestive heart failure; test: Open, baseline controlled pilot trial in patients with congestive heart failure; type: in vivo, human
Procedure: (§1) To proof the concept of clinical efficacy and safety of compound Ia-2 in man, 6 clinical trials were conducted in healthy volunteers and 2 proof of concept trials were conducted in patients: One randomized, placebo-controlled double-blind trial in patients with hypertension (N=191) and one open, baseline controlled pilot trial in patients with congestive heart failure (N=29). […] In the Intent-to-treat patient population (ITT), office diastolic blood pressure versus placebo decreased by −6.9 mmHg (last value under treatment; p<0.001) and office systolic blood pressure versus placebo decreased by −9.2 mmHg (last value under treatment; p=0.003) at the highest dose investigated (200 mg bid).

volunteers and patients = test: Clinical trials, plasma ANP and cGMP following oral dosing; type: in vivo, human
Procedure: as §1

healthy volunteers = test: Double-blind placebo-controlled clinical study, big-ET-induced pressure response; type: in vivo, human; details: thirteen healthy volunteers
Procedure: as §1

[2] = molecular target: T1, His6-tagged IGS5 ectodomain (Homo sapiens, UniProt Q495T6); test: IGS5 enzyme inhibition assay (fluorescence-quenched big-ET-1 analog, HPLC); type: biochemical; details: for IC50: conversion of labeled fluorescent big-ET-1 analog
T1 construct: Enzyme: IGS-5 (sol hu)(his)6; or: His6-tagged IGS5 ectodomain;; made in house; host or cells: Sf9 insect cells, recombinant baculovirus IGBV73, purified from culture supernatant
T1 sequence (Q495T6 49-779 limits assumed): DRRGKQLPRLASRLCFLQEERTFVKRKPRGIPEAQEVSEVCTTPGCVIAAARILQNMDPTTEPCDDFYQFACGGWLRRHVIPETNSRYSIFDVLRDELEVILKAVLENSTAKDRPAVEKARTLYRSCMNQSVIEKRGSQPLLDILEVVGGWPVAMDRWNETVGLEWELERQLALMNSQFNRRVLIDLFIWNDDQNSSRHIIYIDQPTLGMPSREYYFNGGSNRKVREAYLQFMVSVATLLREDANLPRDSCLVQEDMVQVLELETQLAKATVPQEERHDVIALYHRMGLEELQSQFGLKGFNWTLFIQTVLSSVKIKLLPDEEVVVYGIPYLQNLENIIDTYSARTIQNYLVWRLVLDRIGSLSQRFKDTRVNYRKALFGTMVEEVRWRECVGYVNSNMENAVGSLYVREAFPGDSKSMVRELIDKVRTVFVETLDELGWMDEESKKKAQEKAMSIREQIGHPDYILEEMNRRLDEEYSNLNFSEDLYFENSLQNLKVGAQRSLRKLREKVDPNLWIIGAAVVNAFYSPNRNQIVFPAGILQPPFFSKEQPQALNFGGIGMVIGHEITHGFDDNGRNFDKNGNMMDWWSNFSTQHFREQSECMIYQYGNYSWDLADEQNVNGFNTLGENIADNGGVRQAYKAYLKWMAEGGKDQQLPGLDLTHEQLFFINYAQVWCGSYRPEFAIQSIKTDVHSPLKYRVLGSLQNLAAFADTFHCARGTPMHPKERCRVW
Procedure: The enzymatic activity of IGS5 polypeptides of the invention was tested with regard to the metabolism of biologically active peptides. In particular it was tested whether these IGS5 polypeptides may act on a variety of vasoactive peptides known in the state of the art e.g. such like atrial natriuretic peptide (ANP), bradykinin, big-endothelin (big-ET-1), endothelin (ET-1), substance P and angiotensin-1. In the context of the present invention in particular it was tested whether the IGS5 ectodomain, which is a novel human metalloprotease, hydrolyzes said vasoactive peptides. For comparison the assay was also performed for a known member of the metalloprotease family which was described earlier as soluble secreted endopeptidase (SEP) by Emoto et al. (J. Biol. Chem., Vol. 274 (1999): pp. 32469-32477). Furthermore, it was tested whether the activity of IGS5 to convert a big-ET-1 analog (the so-called 17 aa big-ET-1) may be inhibited by reference compounds that are used to determine the inhibition properties with regard to enzymes having ECE and/or NEP-characteristics.
Enzyme: IGS-5 (sol hu)(his)6; or: His6-tagged IGS5 ectodomain;
stock solution: 53 μg/ml in 20 mM HEPES pH 7.2, 5% glycerol, 0.005% Tween20, 100 mM NaCl, purity >99%; storage at 4° C.
working solution: stock solution diluted with assay buffer to 10 μg/ml.
Substrate: Mca-Asp-Ile-Ala-Trp-Phe-Dpa-[…]COOH;
Fluorescence-quenched big-ET-1 analog;
Assay buffer: 100 mM Tris pH 7.0, 250 mM NaCl.
All test compounds were dissolved in DMSO at 10 mM and were further diluted with assay buffer.
A quantity of 70 μl of the assay buffer, of 10 μl enzyme working solution and of 10 μl test compound solution were mixed in an Eppendorf vial and preincubated at 37° C. for 15 minutes. Then, 10 μl substrate stock solution was added and the reaction mixture was incubated at 37° C. for 60 minutes to allow for enzymatic hydrolysis. Subsequently the enzymatic reaction was terminated by heating at 95° C. for 5 minutes. After centrifugation (Heraeus Biofuge B, 3 min) the supernatant was subjected to HPLC analysis.
In order to separate the remaining substrate from the cleavage products reversed phase HPLC technique was used with a CC 125/4 Nucleosil 300/5 C18 RP column and a CC 8/4 Nucleosil 100/5 C18 precolumn (commercially available from Macherey-Nagel, Düren, Germany). Thus, 60 μl of the reaction samples obtained in Example 7b were injected into the HPLC, and the column was eluted at a flow rate of 1 ml/min by applying the following gradient and solutions: […]
The increasing fluorescence signal of the HPLC-peak of the peptide with the unquenched Mca-fluorophor after hydrolysis was taken as the basis for any calculation.
This signal was compared for the samples with and without inhibitor and % inhibition was calculated on basis of the respective peak areas.
% inhib=100*(1−Ainhib/Acontrol)
All samples were run in duplicate and mean values were used.
(§2) Furthermore, the potency of metalloprotease inhibitor compounds and reference compounds to suppress the conversion of big-ET to ET-1 was examined as described in this example 7, using a labeled fluorescent big-ET-1 analog. The procedures applied in the enzyme assays are described above in the examples 4 with regard to IGS5, in example 5 with regard to NEP, and in example 6 with regard to ECE.

[3] = system: patients with WHO grade I-II hypertension; test: Randomized, placebo-controlled double-blind 4-week trial in patients with hypertension; type: in vivo, human; details: 200 mg bid, ITT, last value under treatment
Procedure: as §1

[4] = molecular target: Neutral endopeptidase (E.C. 3.4.24.11) (Sus scrofa, UniProt A0A4X1SQE6); test: NEP enzyme inhibition assay (methionin-enkephalin substrate, HPLC); type: biochemical, pig
Chain of Neutral endopeptidase (E.C. 3.4.24.11) (A0A4X1SQE6 entry or part of it): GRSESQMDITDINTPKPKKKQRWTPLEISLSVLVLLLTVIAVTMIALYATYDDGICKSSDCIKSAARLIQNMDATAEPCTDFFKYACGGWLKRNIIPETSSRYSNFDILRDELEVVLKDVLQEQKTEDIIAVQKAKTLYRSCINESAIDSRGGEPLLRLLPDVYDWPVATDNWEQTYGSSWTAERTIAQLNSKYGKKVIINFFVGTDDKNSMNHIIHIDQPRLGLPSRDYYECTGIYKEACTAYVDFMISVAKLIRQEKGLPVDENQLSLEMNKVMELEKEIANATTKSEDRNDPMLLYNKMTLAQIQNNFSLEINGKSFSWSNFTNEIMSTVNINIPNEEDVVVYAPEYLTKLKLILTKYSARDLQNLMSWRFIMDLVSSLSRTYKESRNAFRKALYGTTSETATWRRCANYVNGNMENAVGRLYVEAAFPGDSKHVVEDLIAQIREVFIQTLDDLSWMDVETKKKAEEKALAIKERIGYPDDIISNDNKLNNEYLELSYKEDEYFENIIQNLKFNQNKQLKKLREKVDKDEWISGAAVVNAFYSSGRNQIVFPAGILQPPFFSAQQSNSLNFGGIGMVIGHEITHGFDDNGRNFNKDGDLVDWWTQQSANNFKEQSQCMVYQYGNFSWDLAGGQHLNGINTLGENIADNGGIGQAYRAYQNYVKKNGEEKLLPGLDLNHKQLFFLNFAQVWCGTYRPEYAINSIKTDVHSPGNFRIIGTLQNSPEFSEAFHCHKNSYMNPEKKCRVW
Procedure: Neutral endopeptidase (E.C. 3.4.24.11) was prepared from pig kidney cortex according to the method of Gee et al. (Biochem J 1985 May 15;228(1):119-26) and purified as reported by Relton et al. (Biochem J 1983 Dec. 1;215(3):519-23). For the enzyme inhibition assay 10 ng of the purified enzyme, 20 μM substrate (methionin-enkephalin) and various inhibitor concentrations were used. The assay buffer was 50 mM Tris-(hydroxymethyl)-aminomethan/HCl pH 7.4, the total assay volume was 100 μl. After a preincubation period of 5 min of enzyme and inhibitor, the substrate was added and subsequently a second incubation phase for enzyme induced substrate hydrolysis at 37° C. for 30 min was initiated. The enzymatic reaction was stopped by heating at 95° C. for 5 min. After centrifugation the supernatant was subjected to HPLC. The products of enzymatic substrate hydrolysis were separated from the native substrate by HPLC technique and the inhibitor potency calculated by comparing the peak areas of the products with the peak area of native substrate for both, the samples with and without inhibitor (control). Blanks without enzyme, controls without inhibitor, samples with inhibitor solvent instead of the inhibitor and samples with a standard inhibitor were added to each assay run.
as §2

[5] = molecular target: T2, Recombinant human COOH-terminal His6-tagged endothelin converting enzyme-1 (Homo sapiens, UniProt P42892); test: ECE enzyme inhibition assay (17 amino acid truncated big endothelin-1, HPLC); type: biochemical
T2 construct: His6 (C); purchased Innogenetics, Ghent, Belgium; host or cells: Sf9 cells
T2 sequence (P42892 1-770): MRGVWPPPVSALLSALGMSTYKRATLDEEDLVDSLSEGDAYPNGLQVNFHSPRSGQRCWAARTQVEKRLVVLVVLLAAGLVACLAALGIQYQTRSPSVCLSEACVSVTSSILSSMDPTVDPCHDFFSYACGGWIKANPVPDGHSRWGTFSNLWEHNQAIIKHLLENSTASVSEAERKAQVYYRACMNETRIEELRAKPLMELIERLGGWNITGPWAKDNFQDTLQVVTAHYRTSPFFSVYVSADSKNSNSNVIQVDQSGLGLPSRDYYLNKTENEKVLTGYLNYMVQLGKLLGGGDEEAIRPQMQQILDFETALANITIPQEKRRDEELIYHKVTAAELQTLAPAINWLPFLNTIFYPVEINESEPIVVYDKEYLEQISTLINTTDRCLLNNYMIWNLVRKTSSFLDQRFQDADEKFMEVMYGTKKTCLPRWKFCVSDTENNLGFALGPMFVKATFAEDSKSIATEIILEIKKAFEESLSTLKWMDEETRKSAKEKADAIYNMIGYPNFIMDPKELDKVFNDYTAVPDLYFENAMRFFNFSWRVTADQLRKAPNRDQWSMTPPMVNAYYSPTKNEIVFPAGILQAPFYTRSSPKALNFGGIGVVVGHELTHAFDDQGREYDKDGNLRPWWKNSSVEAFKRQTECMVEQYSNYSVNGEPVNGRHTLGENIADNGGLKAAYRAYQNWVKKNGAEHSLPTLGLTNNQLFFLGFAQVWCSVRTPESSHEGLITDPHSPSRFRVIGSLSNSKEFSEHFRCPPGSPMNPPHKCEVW
Procedure: The enzyme inhibition assay comprised enzyme (2.8 μg), 5 μg substrate (moderately modified 17 amino acid truncated big endothelin-1), inhibitor at various final concentrations and 100 mM Tris-buffer (Tris-hydroxymethl-aminomethan/HCl, pH 7.0+150 mM NaCl) in a final volume of 100 μl. Pre-incubation of enzyme with inhibitor for 15 min at 37° C. was performed before substrate addition and incubation (60 min at 37° C.) for enzymatic hydrolysis. The enzymatic reaction was stopped by heating at 95° C. for 5 min. After centrifugation the supernatant was subjected to HPLC for separation of enzymatic hydrolysis products from undegraded substrate. % inhibition was calculated on the basis of peak areas for products and uncleaved substrate for the inhibited reaction in comparison to the control (without inhibitor). Blanks without enzyme, controls without inhibitor, samples with inhibitor solvent instead of the inhibitor and samples with a standard inhibitor were added to each assay run.

IC50 [2] [nM]	IC50 ([4]; 20 μM methionin-enkephalin, read-out: NEP IC50) [nM]	Compound	change of plasma big-ET from baseline ([1]; 200 mg)	plasma levels of big-ET following administration ([1]; 200 mg, baseline 4.9 fmol/ml) [fmol/mL]	change of plasma big-ET from baseline ([1]; 400 mg)	plasma levels of big-ET following administration ([1]; 400 mg, baseline 2.3 fmol/ml) [fmol/mL]	plasma concentrations of ANP and its second messenger cGMP (volunteers and patients)	ANP levels (healthy volunteers)	ET-1 levels (healthy volunteers)	big-ET levels (healthy volunteers; compared to placebo group)	big-ET-induced pressure response (healthy volunteers; versus placebo)	office diastolic blood pressure versus placebo ([3]; p<0.001) [mmHg]	office systolic blood pressure versus placebo ([3]; p=0.003) [mmHg]	inhibition of IGS5 activity (in words) [2]	IC50 [4] [nM]	IC50 [5] [nM]
1.2		CCOC(=O)[C@H](CCc1ccccc1)CC1(C(=O)N[C@H]2CCc3ccccc3N(CC(=O)O)C2=O)CCCC1 [compound Ia-2, (3S,2′R)-3-{1-[2′-(ethoxycarbonyl)-4′-phenylbutyl]-cyclopentane-1-carbonylamino}-2,3,4,5-tetrahydro-2-oxo-1H-1-benzazepine-1-acetic acid]	+32.6%	6.5	+56%	3.5	significantly increased and sustained	clear dose related increase	did not increase	increased dose dependently	dose-dependently inhibited	−6.9	−9.2			
1300	42	O=C(O)C(Cc1ccc2c(c1)oc1ccccc12)NCP(=O)(O)O (centres unmarked) [CGS-35066]												Inhibition of IGS5 could be observed at higher concentrations only		5

Compound	IC50 [2] [nM]	IC50 ([4]; 20 μM methionin-enkephalin, read-out: NEP IC50) [nM]	change of plasma big-ET from baseline ([1]; 200 mg)	plasma levels of big-ET following administration ([1]; 200 mg, baseline 4.9 fmol/ml) [fmol/mL]	change of plasma big-ET from baseline ([1]; 400 mg)	plasma levels of big-ET following administration ([1]; 400 mg, baseline 2.3 fmol/ml) [fmol/mL]	plasma concentrations of ANP and its second messenger cGMP (volunteers and patients)	ANP levels (healthy volunteers)	ET-1 levels (healthy volunteers)	big-ET levels (healthy volunteers; compared to placebo group)	big-ET-induced pressure response (healthy volunteers; versus placebo)	office diastolic blood pressure versus placebo ([3]; p<0.001) [mmHg]	office systolic blood pressure versus placebo ([3]; p=0.003) [mmHg]	inhibition of IGS5 activity (in words) [2]	IC50 [4] [nM]	IC50 [5] [nM]
O=C(O)CNC(=O)C(CS)Cc1ccccc1 (centres unmarked) [Thiorphan]	> 1000													no inhibition of IGS5; also recorded: do not affect the activity of IGS5	2.4	> 10000
